From patent publication US20150057325A1, “COMPOUNDS CAPABLE OF MODULATING/PRESERVING ENDOTHELIAL INTEGRITY FOR USE IN PREVENTION OR TREATMENT OF ACUTE TRAUMATIC COAGULOPATHY AND RESUSCITATED CARDIAC ARREST” (priority 2012, published 2015)

How the values were obtained:
[1] = in vivo; cited from earlier work
[2] = human, in vivo
Method: Ninety-four critically ill patients admitted to the intensive care unit (ICU) underwent haemofiltration with or without concomitant Flolan (prostacycline) treatment. None of the patients were suffering from Acute Traumatic Coagulopathy nor from sequelae to cardiac arrest. Flolan was administered in a low dose in the filters to prevent these from clotting and consequently there was only a minor spill over of Flolan to the systemic circulation. The patients were retrospectively reviewed.
However, patients in the flolan group were more severely ill as evaluated by a lower platelet count at start of hemofiltration, a higher frequency of severe thrombocytopenia, a higher frequency of DIC diagnoses, a higher maximum SOFA score and a higher SOFA score at hemofiltration initiation as compared to the patients receiving non-flolan.

[3] = Blood pressure and heart rate in healthy volunteers during intravenous flolan infusion; type: in vivo, human; settings: 4 ng/kg/min i.v. for 2 h, any time point
Method: (§1) Six healthy volunteers were administered flolan (Prostacycline) intravenously at a dose of 4 ng/kg/min for 2 h. Blood samples for whole blood viscoelastical assay (Thrombelastography [TEG]) and whole blood platelet aggregation (Multiplate) were obtained before infusion of Flolan, after 60 min infusion of Flolan and after 120 min infusion of Flolan.

whole blood = assay: Whole blood viscoelastical assay (Thrombelastography, TEG) in healthy volunteers infused with flolan; type: in vivo, human; settings: 6 healthy volunteers, 4 ng/kg/min i.v., after 60 and 120 min infusion; kaolin
Method: Six healthy volunteers were administered flolan (Prostacycline) intravenously at a dose of 4 ng/kg/min for 2 h. Blood samples for whole blood viscoelastical assay (Thrombelastography [TEG]) and whole blood platelet aggregation (Multiplate) were obtained before infusion of Flolan, after 60 min infusion of Flolan and after 120 min infusion of Flolan. With regard to the TEG assay this was performed as recommended by the manufacturer and 340 μl are mixed with 20 μl CaCl 0.2 M (final concentration 11.1 mM in the cup) and kaolin at 37° C. after which the haemostatic activity is recorded as depicted in FIG. 1.

[4] = system: whole blood platelet aggregation; assay: Whole blood impedance aggregometry (Multiplate) in healthy volunteers infused with flolan; type: in vivo, human; settings: 6 healthy volunteers, 4 ng/kg/min i.v., after 60 and 120 min infusion
Method: as §1
Whole blood impedance aggregometry was analyzed by the Multiple Platelet function Analyzer (MultiPlate® analyzer). Analysis employing various platelet agonists: ASPItest (activation by arachidonic acid), COLtest (activation by collagen through the collagen receptor), TRAPtest (activation by TRAP-6 stimulates the thrombin receptor on the platelet surface and ADPtest (activation by ADP stimulates platelet activation by the ADP receptors).
MultiPlate continuously records platelet aggregation. The increase of impedance by the attachment of platelets onto the Multiplate sensors is transformed to arbitrary aggregation units (AU) and plotted against time as depicted in FIG. 2.

endothelium = assay: Plasma biomarkers (ELISA) of endothelial, glycocalyx, necrosis and anticoagulation status in healthy volunteers after Flolan infusion; type: in vivo, human; settings: 8 healthy volunteers, 4 ng/kg/min i.v. for 2 h
Method: Eight healthy volunteers were administered Flolan® (Prostacyclin) intravenously at a dose of 4 ng/kg/min for 2 h. Blood samples were analyzed for plasma biomarkers indicative of endothelial cell (thrombomodulin, PAI-1) and glycocalyx (syndecan-1) activation and/or damage, cellular necrosis (histone-complexed DNA fragments, HMGB1) and anticoagulation (protein C, antithrombin, TFPI) at the following time points: Before the infusion (0 h), immediately after ceasing the infusion (2 h) and then 4 h, 5 h, 6 h, 8 h and 24 h after starting the infusion. The concentration of the individual biomarkers in plasma was analyzed by commercially available ELISA kits according to the manufactures recommendations. Paired t-tests with p-values <0.05 were considered significant.

CC#CCC(C)[C@H](O)/C=C/[C@@H]1[C@H]2c3cccc(CCCC(=O)O)c3O[C@H]2C[C@H]1O (mixture of isomers) [Beraprost, beraprost]
half time [1]: 35 to 40 min

CCCCC[C@H](O)CC[C@@H]1[C@H]2Cc3cccc(OCC(=O)O)c3C[C@H]2C[C@H]1O [Treprostinil, treprostinil]
half time [1]: less than 4 hours

CC#CCC(C)[C@H](O)/C=C/[C@@H]1[C@H]2C/C(=C/CCCC(=O)O)C[C@H]2C[C@H]1O (some centres unmarked) [Iloprost, iloprost]
half time [1]: 20 to 30 min

CCCCC[C@H](O)/C=C/[C@@H]1[C@H]2C/C(=C/CCCC(=O)O)O[C@H]2C[C@H]1O [Flolan, epoprostenol sodium]
Platelet count (difference before vs. after haemofiltration) [2]: +14
haemostatic competence as evaluated by transfusion requirements [2]: does not negatively influence
total transfusion requirements and specifically of FFP during hemofiltration [2]: increased
blood pressure, change from baseline [3]: did not change
heart rate, change from baseline [3]: did not change
TEG values (R, Angle, MA), baseline vs. samples during infusion (whole blood): No significant difference
Multiplate values (ASPI, COL, ADP, TRAP), baseline vs. samples during infusion [4]: no significant difference
cell necrosis biomarker HMGB1 (endothelium): did not influence
cell necrosis biomarker histone-complexed DNA fragments (endothelium): did not influence
circulating level of PAI-1 (endothelium): declined
circulating level of TFPI (affected or not) (endothelium): did not
circulating level of antithrombin (endothelium): decreased
glycocalyx shedding (syndecan-1) (endothelium): did not induce or influence
HMGB1 at 5 h (endothelium; 5 h after starting infusion, p=0.056): tendency towards a reduction
circulating level of thrombomodulin (endothelium; effect continuing for several hours after ceasing infusion): marked decrease
circulating level of Protein C (endothelium; in the hours after ceasing infusion): decreased
half time [1]: 0.5 to 3 min
